Columns and labels:
[1] = Comparative intrinsic dissolution; type: physicochemical; settings: 0.01M pH 6.8 phosphate buffer containing 0.25% w/v SDS, 37° C., 50 rpm
Excerpt: The following data illustrates the dissolution of the crystalline form of dolutegravir sodium disclosed in WO2010068253 (i.e. not the hydrate), compared to crystalline Form 1A of the present invention (i.e. crystalline Form 1A of dolutegravir sodium).
Dissolution medium: 0.01M pH 6.8 phosphate buffer containing 0.25% w/v sodium dodecyl sulfate (SDS)
FIG. 5 is a graphical comparison of the intrinsic dissolution of the solid crystalline Form 1A of dolutegravir sodium of the present invention and the crystalline form of dolutegravir sodium disclosed in WO2010068253. The solid line represents the dissolution of solid crystalline Form 1A of dolutegravir sodium of the present invention, with the dotted line representing the dissolution of the crystalline form of dolutegravir sodium disclosed in WO2010068253.

[2] = Bulk density and tapped density (USP <616> method I); type: physicochemical
Excerpt: Suitable methods for determining the bulk density and tapped density of the crystalline form 1A of dolutegravir sodium of the present invention and the crystalline form of dolutegravir sodium form disclosed in WO2010068253 will be well known to the skilled chemist. For example, USP <616> method I may be used.

| % Release ([1]; 5 minutes) [%] | % Release ([1]; 15 minutes) [%] | % Release ([1]; 30 minutes) [%] | % Release ([1]; 60 minutes) [%] | % Release ([1]; 120 minutes) [%] | % Release ([1]; 240 minutes) [%] | % Release ([1]; 360 minutes) [%] | % Release ([1]; 480 minutes) [%] | % Release ([1]; 600 minutes) [%] | % Release ([1]; 720 minutes) [%] | tapped density [2] [g/mL] | bulk density [2] [g/mL] | Compound |
| --- | --- | --- | --- | --- | --- | --- | --- | --- | --- | --- | --- | --- |
| 26 | 45 | 73 | 66 | 79 | 82 | 81 | 85 | 86 | 82 | 0.7 to 0.8 |  | C[C@@H]1CCO[C@H]2Cn3cc(C(=O)NCc4ccc(F)cc4F)c(=O)c([O-])c3C(=O)N12.[Na+] [Form 1A, sodium (4R,12aS)-9-{[(2,4,-difluorophenyl)methyl]carbamoyl}-4-methyl-6,8-dioxo-3,4,6,8,12,12a-hexahydro-2H-pyrido[1′,2′:4,5]pyrazino[2,1-b][1,3]oxazin-7-olate] |
| 5 | 13 | 20 | 56 | 68 | 74 | 72 | 73 | 73 | 74 |  | 0.2 to 0.3 | C[C@@H]1CCO[C@H]2Cn3cc(C(=O)NCc4ccc(F)cc4F)c(=O)c([O-])c3C(=O)N12.[Na+] [crystalline form of dolutegravir sodium disclosed in WO20100] [sodium (4R,12aS)-9-{[(2,4,-difluorophenyl)methyl]carbamoyl}-4-methyl-6,8-dioxo-3,4,6,8,12,12a-hexahydro-2H-pyrido[1′,2′:4,5]pyrazino[2,1-b][1,3]oxazin-7-olate] |
